Source: US20230393140A1, “BINDING ASSAYS INVOLVING A PLURALITY OF SYNTHETIC COMPOUNDS, TARGETS, AND COUNTER TARGETS” (SRI International, priority 2020, published 2023)
pKd: −log10 of the molar value. Numbered stars: 1 amine (or outer) side, 2 acyl side, 3 side chain; on linkers, the order of the positions; unused ones are H or OH. Square brackets hold non-standard residues; d marks the D form. Peptide text beside a SMILES is read from it. * marks the point of attachment. 5FAM = O=C1OC2(c3ccc(O)cc3Oc3cc(O)ccc32)c2ccc(C(=O)*)cc21; NHCH2C6H4(4-CH2CONH2) = NC(=O)Cc1ccc(CN*)cc1; X1 = O=C(Cc1ccc(CN[*:1])cc1)[*:2]

Experiments:
[1] = tested on: HepG2 cells; experiment: Confocal imaging of HepG2 cell uptake; type: cell-based, human
Description: More particularly, FIG. 11B illustrates cell uptake of GalNAc (positive control), two NNP hits (ASGPR-9-4 and ASGPR-9-6) and a non-hit NNP (KRAS-1-14, negative control) in HepG2 (high ASGPR expressing) verses HEK293 (low ASGPR expressing) cells lines. FIG. 11C illustrates competition uptake assay of GalNAc and two NNP hits (ASGPR-9-4 and ASGPR-9-6) in HepG2 cells after preincubation with different concentrations of asialofetuin (a naturally occurring serum protein ASGPR ligand). Decrease in cell uptake with increasing concentrations of asialofetuin indicates blocking of ASGPR-mediated uptake. FIG. 11D illustrates example confocal images 1113, 1115, 1117, 1119 of HepG2 cell uptake (scale: x20 for the images 1113, 1115, 1117 and x40 for the image 1119). FL=fluorescein label; Cell nucleus staining with DAPI (blue). No uptake with the blank sample (DMSO) is seen at 4 degrees C.

[2] = tested on: ASGPR-mediated uptake in HepG2 cells; experiment: Competitive uptake assay with asialofetuin in HepG2; type: cell-based, human; settings: test compound 0.3 μM; for Cellular uptake with 60 μM asialofetuin: 60 μM asialofetuin (200-fold excess); for Cellular uptake after pre-incubation with asialofetuin: asialofetuin 20 μM and 60 μM
Description: For the competitive uptake assay with the natural ligand of ASGPR (asialofetuin), cells were pre-incubated with 20 μM and 60 μM asialofetuin on ice or at 37 degrees C. for 1.5 hours, followed by the treatment with compounds for additional 2 hours before flow cytometric analysis as described above. The reduction of the uptake under asialofetuin competition was expressed by the percentage against the same treatment condition without asialofetuin.

[3] = tested on: HepG2 cells (high ASGPR expressing); experiment: ASGPR uptake assay, flow cytometry, HepG2; type: cell-based, human; settings: for Internalization compared with positive control GalNAc: HepG2, flow cytometry; for Internalization (cell uptake) in HepG2: fluorescein-labeled compounds, flow cytometry, 2 hours
Description: The HEK293T (human embryonic kidney cells) and human hepatoma HepG2 cells were grown according to the protocols provided by the American Type Culture Collection (ATCC). When cells reached cell were seeded at ˜1.5×10^5 cells/well in 24-well culture plate for the uptake assay. After at least 16 hours of culture to allow cell attach and equilibrate, the compound treatment was set up for the uptake assay.
The fluorescein-labeled NNPs or fluorescein-labeled N-acetylgalactosamine (GalNAc) recognizing ASGRPR were added to wells at indicated concentrations and incubated for 2 hours. Two plates were prepared for each treatment condition, one serving as 4 degrees C. no internalization control that was kept on ice during incubation, while the second plate was incubated at 37 degrees C. to allow for energy dependent internalization. Following the incubation period, all plates were placed on ice and washed three times with ice-cold PBS/3% BSA/2 mM EDTA and then lifted with trypsin. Cells were transferred to a 96-well round bottom plates in FACS buffer. Cells were then analyzed by flow cytometry using LSR-HJ with HTS sampler (BD Biosciences, San Jose, CA, USA). Data (mean fluorescence intensities) and further analyzed using Flowjo software (BD Biosciences, San Jose, CA, USA). The internalized fraction was expressed as the difference between the corresponding 4 degrees C. and 37 degrees C. MFIs as previously described.

[4] = molecular target: T1, ASGPR (Homo sapiens, UniProt P07306); experiment: MST binding affinity of resynthesized NNP hits to ASGPR; settings: read-out: KD of ASGPR hits by MST
T1 construct: purchased R&D Systems, Inc. 4394-AS
T1 sequence (P07306 1-291): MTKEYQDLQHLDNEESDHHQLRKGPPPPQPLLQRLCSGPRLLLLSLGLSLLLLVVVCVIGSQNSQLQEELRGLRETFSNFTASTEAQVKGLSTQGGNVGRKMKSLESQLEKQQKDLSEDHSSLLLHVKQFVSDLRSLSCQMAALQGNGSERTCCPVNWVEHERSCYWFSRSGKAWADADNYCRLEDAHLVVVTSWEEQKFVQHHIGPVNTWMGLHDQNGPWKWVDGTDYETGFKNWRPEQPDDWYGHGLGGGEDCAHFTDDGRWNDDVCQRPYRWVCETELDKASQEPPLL
Description: Hit binding affinity to various targets were determined using Microscale Thermophoresis (MST). MST experiments were performed on a Monolith NT.115pico (NanoTemper Technologies GmbH, Munich, Germany). Measurements were performed at room temperature, in triplicate with incubation periods of 15, 30 and 45 minutes. […] Targets were labeled using Nanotemper Monolith 2nd Generation Protein Labeling Kits. RED-MALEIMIDE (Maleimide-647-dye) labeling kit was used for K-Ras and RED-NHS (NHS-647-dye) labeling kit was used for IL-6, IL-6R, TNFα and ASGPR. The buffer for the ASGPR contained 20 mM HEPES pH 7.4, 150 mM NaCl, 10 mM MgCl2, 2 mM CaCl2, 0.05% Pluronic F-127, and 1 mM DTT; for IL-6 contained 20 mM HEPES pH 7.4, 150 mM KCl, 10 mM MgCl2, and 0.1% Pluronic F-127; for the soluble IL-6 receptor 20 mM HEPES pH 7.4, 150 mM NaCl, 10 mM MgCl2, and 0.05% Tween-20; for K-Ras 20 mM HEPES pH 7.4, 150 mM NaCl, 10 mM MgCl2, 0.05% Tween-20 and 1 mM DTT; for TNFα 10 mM HEPES pH 7.4, 150 mM NaCl, 10 mM MgCl2, 0.05% Polysorbate-20. Triplicate data was analyzed using MO.AffinityAnalysis software (NanoTemper Technologies GmbH).

Compound	HepG2 cell uptake, confocal images, 4 degrees C. [1]	HepG2 cell uptake, confocal images, 37 degrees C. [1]	Cellular uptake with 60 μM asialofetuin [2]	Cellular uptake after pre-incubation with asialofetuin [2]	Internalization compared with positive control GalNAc [3]	Internalization (cell uptake) in HepG2 [3]	pKd [4]
THA-(GalNAc)3-(OH)9-1,3-propanediamine-fluorescein [reference compound]	no uptake	is seen at 37 °C	mostly abolished	decreased with increasing concentrations of asialofetuin			
CC(C)C[C@H](NC(=O)[C@@H](CCCNC(=N)N)NC(=O)[C@@H](CCCCN)NC(=O)[C@@H](CCC(=O)O)NC(=O)[C@@H](Cc1ccccc1)NC(=O)Cc1ccc(CNC(=O)[C@H](Cc2ccccc2)NC(=O)[C@@H](CO)NC(=O)[C@@H](CCC(=O)O)NC(=O)[C@H]2CCCN2C(=O)[C@@H](CC(C)C)NC(=O)c2ccc3c(c2)C(=O)OC32c3ccc(O)cc3Oc3cc(O)ccc32)cc1)C(=O)NCc1ccc(CC(=O)NCC(=O)N2CCC[C@@H]2C(=O)N[C@H](CCCNC(=N)N)C(=O)N[C@H](CO)C(=O)N[C@@H](Cc2ccccc2)C(=O)NCc2ccc(CC(=O)N[C@H](Cc3ccc(O)cc3)C(=O)N[C@@H](C(=O)N3CCC[C@@H]3C(=O)N[C@H](CCCNC(=N)N)C(=O)N[C@@H](C)C(=O)NCc3ccc(CC(=O)N[C@H](CCCNC(=N)N)C(=O)N[C@H](Cc4ccccc4)C(=O)N4CCC[C@@H]4C(=O)N[C@@H](C(=O)NCC(=O)NCc4ccc(CC(=O)N[C@H](CC(C)C)C(=O)N5CCC[C@@H]5C(=O)N[C@H](CCCNC(=N)N)C(=O)N[C@@H](C(=O)NCC(=O)NCc5ccc(CC(N)=O)cc5)[C@H](C)O)cc4)C(C)C)cc3)[C@H](C)O)cc2)cc1 [ASGPR-9-6] (5FAM-[dL][dP][dE][dS]F[X1][dF][dE][dK][dR]L[X1]G[dP][dR][dS]F[X1][dY][dT][dP][dR]A[X1][dR][dF][dP][dV]G[X1][dL][dP][dR][dT]G-{NHCH2C6H4(4-CH2CONH2)})	not at 4 °C	intracellular uptake is observed	mostly abolished	decreased with increasing concentrations of asialofetuin	significantly higher than uptake of the positive control GalNAc	significantly higher in HepG2 cells compared to in HEK293 cells	7.47
CC(C)C[C@H](NC(=O)CNC(=O)[C@@H](Cc1c[nH]cn1)NC(=O)[C@@H](CCCNC(=N)N)NC(=O)[C@H]1CCCN1C(=O)Cc1ccc(CNC(=O)[C@H](Cc2ccccc2)NC(=O)[C@@H](CO)NC(=O)[C@@H](CCCNC(=N)N)NC(=O)[C@H]2CCCN2C(=O)CNC(=O)Cc2ccc(CNC(=O)[C@H](CC(C)C)NC(=O)[C@@H](CCCNC(=N)N)NC(=O)[C@@H](CCCCN)NC(=O)[C@@H](CCC(=O)O)NC(=O)[C@@H](Cc3ccccc3)NC(=O)Cc3ccc(CNC(=O)[C@H](Cc4ccccc4)NC(=O)[C@@H](CO)NC(=O)[C@@H](CCC(=O)O)NC(=O)[C@H]4CCCN4C(=O)[C@@H](CC(C)C)NC(=O)c4ccc5c(c4)C(=O)OC54c5ccc(O)cc5Oc5cc(O)ccc54)cc3)cc2)cc1)C(=O)NCc1ccc(CC(=O)N[C@H](CCCNC(=N)N)C(=O)N[C@H](Cc2ccccc2)C(=O)N2CCC[C@@H]2C(=O)N[C@@H](C(=O)NCC(=O)NCc2ccc(CC(=O)N[C@H](CC(C)C)C(=O)N3CCC[C@@H]3C(=O)N[C@H](CCCNC(=N)N)C(=O)N[C@@H](C(=O)NCC(=O)NCc3ccc(CC(N)=O)cc3)[C@H](C)O)cc2)C(C)C)cc1 [ASGPR-9-4] (5FAM-[dL][dP][dE][dS]F[X1][dF][dE][dK][dR]L[X1]G[dP][dR][dS]F[X1][dP][dR][dH]GL[X1][dR][dF][dP][dV]G[X1][dL][dP][dR][dT]G-{NHCH2C6H4(4-CH2CONH2)})			mostly abolished	decreased with increasing concentrations of asialofetuin	significantly higher than uptake of the positive control GalNAc	significantly higher in HepG2 cells compared to in HEK293 cells	6.64
